Results as given in publication PMC10064330, “Reversible Dual-Covalent Molecular Locking of the 14-3-3/ERRγ Protein–Protein Interaction as a Molecular Glue Drug Discovery Approach” (Journal of the American Chemical Society, 2023).
Square brackets hold non-standard residues; d marks the D form. Peptide text beside a SMILES is read from it. pS = N[C@@H](COP(=O)(O)O)C(=O)O

Tests used:
14-3-3γ = target: T1, 14-3-3γ (Homo sapiens, UniProt P61981); test: FA binding of client phosphopeptides to 14-3-3γ (binary complex); settings: no stabilizer (DMSO); read-out: KD of binary 14-3-3γ/peptide complex
T1 construct: made in house; host or cells: E. coli NiCo21 (DE3)
T1 sequence (P61981 1-247): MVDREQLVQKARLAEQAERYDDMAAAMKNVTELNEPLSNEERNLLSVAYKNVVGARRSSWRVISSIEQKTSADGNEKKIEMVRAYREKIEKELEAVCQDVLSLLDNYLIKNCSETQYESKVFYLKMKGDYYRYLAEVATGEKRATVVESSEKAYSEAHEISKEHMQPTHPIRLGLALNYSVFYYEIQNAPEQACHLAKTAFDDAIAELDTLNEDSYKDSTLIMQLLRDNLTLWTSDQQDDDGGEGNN

14-3-3γ/ERRγ complex = target: T2, 14-3-3γ/ERRγ complex (Homo sapiens, UniProt P61981+P62508); test: Fluorescence anisotropy (FA): 14-3-3γ titration to fluorescein-ERRγ phosphopeptide with 100 μM compound; type: binding; settings: for stabilization factor SF100, Replicate 1 (Table S2) / stabilization factor SF100, Replicate 2 (Table S2) / stabilization factor SF100, Replicate 3 (Table S2) / stabilization factor SF100, Average (Table S2): KD DMSO control / apparent KD with 100 μM compound, 24 h; for stabilization factor SF100, Average (Table S2): average of three experiments
T2 construct: made in house; host or cells: E. coli NiCo21 (DE3)
Experimental: The stabilization of the ERRγ/14-3-3γ complex by the molecular locks was assessed using a fluorescence anisotropy (FA) assay where 14-3-3γ was titrated into a fluorescently labeled ERRγ phosphopeptide in the absence or presence of a 100 μM molecular lock (Figure 2a,b); this compound concentration was selected based on a FA compound titration assay (Figure S1).
Experimental Section Biophysical Assays
14-3-3γ protein expression (FA, TSA, MS assays)
A pPROEX HTb expression vector encoding the human 14-3-3 protein gamma (14-3-3γ) with a N-terminal his6-tag was transformed by heat shock into NiCo21 (DE3) competent cells. Single colonies were cultured in 50 mL LB medium (100 µg/mL ampicillin). After overnight incubation at 37 °C, cultures were transferred to 2 L TB media (100 µg/mL ampicillin, 1 mM MgCl2) and incubated at 37 °C until an OD600 nm of 0.8 -1.2 was reached. Protein expression was then induced with 0.4 mM isopropyl-β-d-thiogalactoside (IPTG), and cultures were incubated overnight at 18 °C. Cells were harvested by centrifugation (8600 rpm, 20 minu tes, 4 °C) and resuspended in lysis buffer (50 mM Hepes, pH 8.0, 300 mM NaCl, 12.5 mM imidazole, 5 mM MgCl2, 2 mM βME) containing cOmplete™ EDTA-free Protease Inhibitor Cocktail tablets (1 tablet/100 ml lysate) and benzonase ( 5 µl/100 ml). After lysis using a C3 Emulsiflex-C3 homogenizer (Avestin), the cell lysate was cleared by centrifugation (20000 rpm, 30 minutes, 4 °C) and purified using Ni2+-affinity chromatography (Ni -NTA superflow cartridges, Qiagen). Typically two 5 mL columns (flow 5 mL/min) were use d for a 2 L culture in which the lysate was loaded on the column , washed with 10 CV wash buffer (50 mM Hepes, pH 8.0, 300 mM NaCl, 25 mM imidazole, 2 mM βME), and eluted in several fractions (2-4 CV) of elution buffer (50 mM Hepes, pH 8.0, 300 mM NaCl, 250 mM imidazole, 2 mM βME). Fractions containing the 14 -3-3 protein were combined and dialyzed into 25 mM HEPES pH 8.0, 100 mM NaCl, 10 mM MgCl2, 500 µM TCEP. Finally, the protein was concentrated to ∼60 mg/mL, analyzed Q-Tof LC/MS, and aliquots were flash-frozen for storage at −80 °C.
14-3-3σΔc C38N protein expression (Crystallography)
A pPROEX HTb expression vector encoding the human 14-3-3 protein sigma truncated after T231 (14-3-3σΔc), mutated C38N, and containing a N-terminal his6-tag was transformed by heat shock into NiCo21 (DE3) competent cells. Single colonies were cultured in 50 mL LB medium (100 µg/mL ampicillin). After overnight incubation at 37 °C, cultures were transferred to 2 L TB media (100 µg/mL ampicillin, 1 mM MgCl2) and incubated at 37 °C until an OD600 nm of 0.8-1.2 was reached. Protein expression was then induced with 0.4 mM isopropyl-β-d-thiogalactoside (IPTG), and cultures were incubated overnight at 18 °C. Cells were harvested by centrifugation (8600 rpm, 20 minutes, 4 °C) and resuspended in lysis buffer (50 mM Hepes, pH 8.0, 300 mM NaCl, 12.5 mM imidazole, 5 mM MgCl2, 2 mM βME) containing cOmplete™ EDTA-free Protease Inhibitor Cocktail tablets (1 tablet/ 100 ml lysate) and benzonase (5 µl/ 100 ml). After lysis using a C3 Emulsiflex-C3 homogenizer (Avestin), […]
chromatography (Ni-NTA superflow cartridges, Qiagen). Typically two 5 mL columns were used for a 2 L culture in which the lysate was loaded on the column , washed with 10 CV wash buffer (50 mM Hepes, pH 8.0, 300 mM NaCl, 25 mM imidazole, 2 mM βME), and eluted with several fractions (2 -4 CV) of elution buffer (50 mM Hepes, pH 8.0, 300 mM NaCl, 250 mM imidazole, 2 mM βME). Fractions containing the 14-3-3 protein were combined and dialyzed into 25 mM HEPES pH 8.0, 200 mM NaCl, 10 mM MgCl 2, 2 mM βME. In addition, 1 mg TEV was added for each 100 mg purified protein to remove the purification tag. The cleaved sample was then again loaded on a 10 mL Ni-NTA column to separate the cleaved product from the expression tag and residual uncleaved protein. The flowthrough was loaded on a Superdex 75 pg 16/60 size exc lusion column (GE Life Sciences) using […]

SMILES | Kd (14-3-3γ) | stabilization factor SF100, Replicate 1 (Table S2) (14-3-3γ/ERRγ complex) | stabilization factor SF100, Replicate 2 (Table S2) (14-3-3γ/ERRγ complex) | stabilization factor SF100, Replicate 3 (Table S2) (14-3-3γ/ERRγ complex) | stabilization factor SF100, Average (Table S2) (14-3-3γ/ERRγ complex) | stabilization of 14-3-3γ/ERRγ complex (SF100, fold) (14-3-3γ/ERRγ complex; 100 μM compound, 24 h incubation)
CC(=O)N[C@@H](CCCCN)C(=O)N[C@@H](CCCNC(=N)N)C(=O)N[C@@H](CCCNC(=N)N)C(=O)N[C@@H](CCCNC(=N)N)C(=O)N[C@@H](CCCCN)C(=O)N[C@@H](COP(=O)(O)O)C(=O)N[C@@H](CS)C(=O)N[C@@H](CCC(N)=O)C(=O)N[C@@H](C)C(N)=O [ERRγ] (Ac-KRRRK[pS]CQA-NH2; N-terminus and C-terminus assumed) | 6.5 ± 0.9 µM | – | – | – | – | –
CN(C)CCSSCCN(C)C(=O)c1ccc(C=O)cc1 [compound 4] | – | 13.0 | 8.6 | 9.0 | 10.2 | –
CN(C)CCSSCCN(C)C(=O)c1ccc(C=O)c(Br)c1 [compound 6] | – | 22.3 | 14.3 | 16.9 | 17.8 | –
CN(C)CCSSCCN(C)S(=O)(=O)c1ccc(C=O)cc1 [compound 7] | – | 13.4 | 11.4 | 8.6 | 11.2 | –
CN(C)CCSSCCN(C)C(=O)c1cccc(C=O)c1 [compound 8] | – | 25.5 | 17.3 | 19.0 | 20.6 | –
CN(C)CCSSCCN(C)C(=O)c1ccc(F)c(C=O)c1 [compound 9] | – | 8.5 | 5.4 | 7.9 | 7.3 | least active
